According to PubChem BioAssay (NCI):
Where “and” joins values, the source holds several entries; their conditions need not be identical. Identical values can stand only once.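 1) Cells in 96-well plates. 2) Compound, 48 h, 5 concentrations. 3) Linear interpolation between surrounding doses. 4) Unreached endpoint = highest concentration. GI50: concentration for 50% inhibition of growth. TGI is the concentration that stops growth completely.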

tested on: MDA-MB-468 breast; assay: inhibition of tumour cell growth, NCI panel, 48 h

Row | Structure (SMILES) | GI50 | TGI
1 | COc1ccccc1/C=N\N=C(N/N=C/c1ccccc1OC)N/N=C/c1ccccc1OC | 3.51 µM | 10.7 µM
2 | O=C(N/N=C/c1ccccc1O)C(=O)Nc1ccc(F)cc1 | 4.41 µM | > 100 µM
3 | O=C(Cc1cccc(OC(F)(F)F)c1)Nc1ccc(CCCCc2nnc(NC(=O)Cc3ccccn3)s2)nn1 | 7.69 µM | 58.5 µM
4 | CN1CCN(Cc2ccc(NC(=O)c3ccc(C#Cc4c(N)ncc5ccc(F)cc45)cc3)cc2C(F)(F)F)CC1 | 0.998 µM | 1.97 µM
5 | CSc1ccc2c3c(n(C[C@H](O)CO)c(=O)c2c1)-c1ccccc1C3=O | 1.87 µM | 5.78 µM
6 | C=C1C(=O)O[C@H]2[C@H]1CC/C(COC(=O)NCCc1c[nH]c3ccc(OC)cc13)=C\CC[C@@]1(C)O[C@@H]21 | 1.19 µM | 2.91 µM
7 | O=c1cc(-c2ccccc2)[nH]n1-c1nc2ccccc2[nH]1 | 4.3 µM | 45.9 µM
8 | O=Nc1ccc2ccccc2c1O | 13.4 µM | 34.9 µM
9 | C=C1C(=O)O[C@H]2[C@H]1CC/C(COC(=O)CSCC(=O)OC/C1=C/CC[C@@]3(C)O[C@H]3[C@H]3OC(=O)C(=C)[C@@H]3CC1)=C\CC[C@@]1(C)O[C@@H]21 | 1.42 µM | 3.5 µM
10 | Cn1cc(-c2cnc3ccc4ccc(CS(=O)(=O)NCc5ccccn5)cc4c(=O)c3c2)cn1 | 10.9 µM | 29 µM
11 | C#CC(F)(F)[C@]1(O)CC[C@H]2[C@@H]3CCC4=CC(=O)CCC4=C3[C@@H](c3ccc(C(C)=O)cc3)C[C@@]21C | 7.69 µM | 34.1 µM
12 | Cc1c2c[n+](C(C)C)ccc2c(C)c2c1[nH]c1ccccc12 | 0.312 µM | 1.97 µM
13 | O=c1[nH]cnc2[nH]ncc12 | 152 µM | 2680 µM
14 | O=C(O)c1cc2cc(OCc3ccccc3)c(OCc3ccccc3)cc2[nH]1 | 17.9 µM | 36.7 µM
15 | Cc1cc(C)c(O)c(CN(C)Cc2cc(Cl)cc(Cl)c2O)c1 | 2.83 µM | 11.8 µM
16 | NS(=O)(=O)c1cccc(N=Cc2c(O)[nH]c3ccccc23)c1 | > 25 µM | > 25 µM
17 | COc1ccc2c(c1)C(=O)/C(=C/c1ncc([N+](=O)[O-])n1C)O2 | 1.7 µM | 4.12 µM
18 | CCCCCCCCCCCCSC(=N)N | 6.21 µM | 20.5 µM
19 | CC(C)NC(=O)OCc1c(COC(=O)NC(C)C)c(-c2ccc(Cl)cc2)n2c1CCC2 | 0.928 µM | 2.5 µM
20 | C/C=C/CC(C)C(O)C1C(=O)NC(CC)C(=O)N(C)CC(=O)N(C)C(CC(C)C)C(=O)NC(C(C)C)C(=O)N(C)C(CC(C)C)C(=O)NC(C)C(=O)NC(C)C(=O)N(C)C(CC(C)C)C(=O)N(C)C(CC(C)C)C(=O)N(C)C(C(C)C)C(=O)N1C (stereo not drawn) | 0.872 µM | 6.63 µM
21 | COc1cc(/C=C2\CN(C)C/C(=C\c3cc(CN4CCCCC4)c(O)c(OC)c3)C2=O)cc(CN2CCCCC2)c1O | 3.79 µM | 14.7 µM
22 | O=C(Nc1ccc(Cl)cc1)c1cc(-c2ccc(Cl)cc2)c2sc(=O)[nH]c2n1 | 1.73 µM | 6.62 µM

Row | Structure (SMILES) | GI50 | TGI
23 | N#CCc1ncc(-c2ccc(C(F)(F)F)cc2)c(NC2CCCCCC2)n1 | > 10 µM | > 10 µM
24 | Cc1c(C)[n+](=O)c(C)c(C)n1[O-] | > 100 µM | > 100 µM
25 | COc1cc(-c2nc3sc4c(c3c(=O)[nH]2)CCCCCC4)cc(OC)c1OC | 0.676 µM | 3.01 µM
26 | C=CC(=O)N[C@H]1CCOC[C@H]1Nc1ncc2cc(-c3c(Cl)c(OC)cc(OC)c3Cl)ccc2n1 | 9.16 µM | 44.7 µM
27 | O=C(Nc1ccccc1O)c1ccc(Oc2cccc(C(=O)Nc3ccccc3O)c2)cc1 | 2.17 µM | 8.16 µM
28 | CCOP(=O)(OCC)OC[C@]12CCC(C)(C)C[C@H]1C1=CC[C@@H]3[C@@]4(C)C/C(=C\c5cccnc5)[C@H](OP(=O)(OCC)OCC)C(C)(C)[C@@H]4CC[C@@]3(C)[C@]1(C)CC2 | 1.12 µM | 2.5 µM
29 | NC1=NC(c2ccc(Cl)cc2)C2=C(N1)/C(=C/c1ccc(Cl)cc1)CCC2 (stereo not drawn) | 3.49 µM | 13.9 µM
30 | COc1ccc(C(=O)c2cc3c(OC)c(OC)c(OC)cc3[nH]2)cc1 | 2.64 µM | > 100 µM
31 | COc1ccc(Cl)cc1NC(=O)C(Br)C(Br)C(=O)O (stereo not drawn) | 0.567 µM | 2.27 µM
32 | COC(=O)[C@]12CC[C@@H](C)[C@H](C)[C@@H]1C1=CC[C@@H]3[C@@]4(C)C=C(O)C(=O)[C@@]5(C)COC(=C54)C[C@@]3(C)[C@]1(C)CC2 | 4.88 µM | 19.9 µM
33 | CC(=O)O/N=C1/C(c2c(O)[nH]c3cc(Br)ccc23)=Nc2ccccc21 | 1.64 µM | 3.22 µM
34 | Cc1cc(Cc2cc(C)cc(C(C)(C)C)c2O)c(O)c(C(C)(C)C)c1 | 11.4 µM | 24.2 µM
35 | O=C(N/N=C/c1ccc([N+](=O)[O-])cc1)c1ccc2nc(-c3ccc(Cl)cc3)[nH]c2c1 | 1.97 µM | 4.79 µM
36 | O=C(Nc1ccc(Cl)c(C(F)(F)F)c1)Nc1ccc2c(ccn2C(=O)c2cccc(F)c2)c1 | 1.83 µM | 4.96 µM
37 | Cc1cc(Nc2ncnc3ccc(NC4=NC(C)(C)CO4)cc23)ccc1Oc1ccn2ncnc2c1 | 1.78 µM and 2.18 µM | 12.7 µM and > 10 µM
38 | CN(C)C(=O)c1cc2cnc(Nc3ccc(-c4csc5c(=O)cc(N6CCOCC6)oc45)cc3)nc2n1C1CCCC1 | 0.122 µM | 0.397 µM
39 | c1cn2cc(-c3ccc4cn[nH]c4c3)nc(Nc3ccc(N4CCOCC4)cc3)c2n1 | 8.59 µM | 32.4 µM
40 | COc1ccc2c(c1)C(c1ccccc1Cl)=Nc1c(n[nH]c1C)N2 | > 16.8 µM | > 25 µM
41 | O=C(CCl)N1c2ccccc2Sc2ccc3ccccc3c21 | 0.351 µM | 1.46 µM
42 | COc1ccc2nc3cc(Cl)ccc3c(NCCCNCCC(C)O)c2c1 (stereo not drawn) | 0.313 µM | 1.78 µM
43 | COc1cccc2c1C(=O)c1c(O)c3c(c(O)c1C2=O)C[C@@](O)(C(=O)CO)C[C@@H]3OC1C[C@H](N)[C@H](O)[C@H](C)O1 (stereo partly drawn) | 0.0253 µM | 0.123 µM
44 | CCN1c2ccccc2C(Cl)(c2ccc(N(C)C)cc2)c2ccccc21 | 3.36 µM | 15.5 µM
